Results published in patent US20220041641A1, “QUATERNARY AMMONIUM SALTS AS INHIBITORS OF TRIMETHYLAMINE PRODUCTION” (Senda Biosciences, Inc., priority 2018, published 2022).
“And” between values parts separate entries of the source, which are not always exact repeats. Equal values may be shown once. Where a name gives a salt, the structure may show the parent alone. Read-outs that look alike come from different tables or passages of the source.

Experiments:
[1] = biological target: CutC from Clostridium sporogenes (Clostridium sporogenes, UniProt A0AAE4Z0A8); experiment: Cell-based assay for TMA production from a native producer (C. sporogenes); conditions: read-out: IC50 Whole cell C. sporogenes; d9-TMA from 1 mM d9-choline, 5 h, 37° C.; run once; value 10 given when no fit or % TMA remaining at 10 μM higher than 15%
Sequence of CutC from Clostridium sporogenes (A0ABD6RTF0 entry or part of it): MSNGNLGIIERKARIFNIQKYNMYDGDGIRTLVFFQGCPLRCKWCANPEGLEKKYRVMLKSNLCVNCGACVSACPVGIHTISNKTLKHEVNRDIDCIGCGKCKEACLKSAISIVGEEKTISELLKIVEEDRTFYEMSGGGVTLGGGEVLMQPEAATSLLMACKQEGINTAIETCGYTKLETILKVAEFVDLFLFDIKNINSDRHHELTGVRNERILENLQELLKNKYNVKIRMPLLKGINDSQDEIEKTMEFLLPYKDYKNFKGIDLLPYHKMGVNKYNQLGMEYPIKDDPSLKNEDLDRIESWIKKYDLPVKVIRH
Sequence of CutC from Clostridium sporogenes (A0AAE4Z0A8 entry or part of it): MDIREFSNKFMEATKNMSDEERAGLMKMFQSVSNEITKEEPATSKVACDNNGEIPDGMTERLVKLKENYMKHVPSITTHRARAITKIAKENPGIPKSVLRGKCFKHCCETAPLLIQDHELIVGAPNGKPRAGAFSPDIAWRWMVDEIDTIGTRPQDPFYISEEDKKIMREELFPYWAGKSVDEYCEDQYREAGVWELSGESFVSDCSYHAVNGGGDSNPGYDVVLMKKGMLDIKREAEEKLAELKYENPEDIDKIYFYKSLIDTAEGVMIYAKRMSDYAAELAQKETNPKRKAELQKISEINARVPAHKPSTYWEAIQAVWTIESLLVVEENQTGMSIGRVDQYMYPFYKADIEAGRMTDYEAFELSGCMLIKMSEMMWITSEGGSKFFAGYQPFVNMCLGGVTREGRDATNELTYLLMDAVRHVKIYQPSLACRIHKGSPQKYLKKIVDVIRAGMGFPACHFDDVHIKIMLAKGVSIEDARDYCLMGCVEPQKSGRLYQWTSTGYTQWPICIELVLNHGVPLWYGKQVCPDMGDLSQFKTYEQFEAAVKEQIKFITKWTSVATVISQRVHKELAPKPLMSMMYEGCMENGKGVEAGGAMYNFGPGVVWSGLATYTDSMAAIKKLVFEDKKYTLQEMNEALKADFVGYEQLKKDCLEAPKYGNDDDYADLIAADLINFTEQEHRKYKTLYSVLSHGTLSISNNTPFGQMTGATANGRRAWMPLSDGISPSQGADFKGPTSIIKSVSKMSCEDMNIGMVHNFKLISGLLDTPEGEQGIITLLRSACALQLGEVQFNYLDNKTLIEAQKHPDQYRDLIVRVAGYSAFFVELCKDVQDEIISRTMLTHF
Source text: (§1) In each bacterium, CutC was modified into its activated form by a cognate activating enzyme, CutD (protein EDU36696.1 for C. sporogenes; protein WP_004249185.1 for P. mirabilis). […] Trimethylamine may subsequently be converted by human enzymes such as flavin monooxygenase 3 to trimethylamine N-oxide, which might be associated with negative health consequences in humans.
(§2) A compound's ability to inhibit CutC from Proteus mirabilis and C. sporogenes from converting choline into trimethylamine was tested in cells as described. A BHI blood plate was inoculated with a frozen stock of Proteus mirabilis or Clostridium sporogenes under anaerobic conditions. A single colony was isolated from the plate and inoculated into 5 mL BHI supplemented with 1 mM choline under anaerobic conditions. The liquid cultures were grown overnight at 37° C.
(§3) To prepare each sample, 300 μL of the saturated culture was then inoculated into a 30 mL dilution blank under anaerobic conditions. 1 mM (trimethyl-d9)-choline and a sufficient amount of a compound to obtain a final concentration of 10 μM were added to the inoculated dilution blank. […] The mixture was incubated at 37° C. for 5 h. […] After centrifugation, the samples were analyzed by LCMS to determine the amount of d9-TMA produced.

[2] = biological target: CutC from Proteus mirabilis (Proteus mirabilis, UniProt B4EYG1); experiment: Cell-based assay for TMA production from a native producer (P. mirabilis)
Sequence of CutC from Proteus mirabilis (B4EYG1 entry or part of it): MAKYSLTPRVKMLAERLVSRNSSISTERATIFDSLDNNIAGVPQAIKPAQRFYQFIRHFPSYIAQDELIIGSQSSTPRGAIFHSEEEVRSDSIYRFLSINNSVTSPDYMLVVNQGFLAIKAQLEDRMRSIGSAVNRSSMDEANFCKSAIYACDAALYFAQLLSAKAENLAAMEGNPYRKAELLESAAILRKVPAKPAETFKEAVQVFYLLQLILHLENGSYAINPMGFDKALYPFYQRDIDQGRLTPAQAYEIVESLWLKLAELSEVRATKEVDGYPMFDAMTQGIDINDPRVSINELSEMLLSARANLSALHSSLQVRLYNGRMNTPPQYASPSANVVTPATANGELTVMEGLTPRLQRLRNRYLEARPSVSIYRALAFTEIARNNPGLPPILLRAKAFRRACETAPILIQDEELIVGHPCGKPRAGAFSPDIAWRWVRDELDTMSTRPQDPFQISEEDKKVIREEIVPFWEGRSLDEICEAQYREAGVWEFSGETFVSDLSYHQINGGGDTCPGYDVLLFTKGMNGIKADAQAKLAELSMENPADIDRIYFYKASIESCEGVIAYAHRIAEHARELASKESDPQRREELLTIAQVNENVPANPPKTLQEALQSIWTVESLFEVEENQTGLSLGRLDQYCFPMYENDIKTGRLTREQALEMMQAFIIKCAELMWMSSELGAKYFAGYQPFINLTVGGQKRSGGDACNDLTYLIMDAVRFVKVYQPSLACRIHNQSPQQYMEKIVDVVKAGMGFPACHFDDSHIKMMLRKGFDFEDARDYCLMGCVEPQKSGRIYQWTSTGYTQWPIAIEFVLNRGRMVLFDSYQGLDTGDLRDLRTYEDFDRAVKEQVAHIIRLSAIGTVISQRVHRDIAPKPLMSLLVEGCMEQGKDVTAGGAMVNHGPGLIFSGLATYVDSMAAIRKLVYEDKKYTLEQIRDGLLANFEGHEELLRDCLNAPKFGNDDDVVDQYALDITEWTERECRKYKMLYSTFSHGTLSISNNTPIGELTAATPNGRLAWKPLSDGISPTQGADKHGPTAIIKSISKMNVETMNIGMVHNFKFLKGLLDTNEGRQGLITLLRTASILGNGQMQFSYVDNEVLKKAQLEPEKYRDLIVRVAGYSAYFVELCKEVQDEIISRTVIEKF
Sequence of CutC from Proteus mirabilis (B4EYG0 entry or part of it, further chain): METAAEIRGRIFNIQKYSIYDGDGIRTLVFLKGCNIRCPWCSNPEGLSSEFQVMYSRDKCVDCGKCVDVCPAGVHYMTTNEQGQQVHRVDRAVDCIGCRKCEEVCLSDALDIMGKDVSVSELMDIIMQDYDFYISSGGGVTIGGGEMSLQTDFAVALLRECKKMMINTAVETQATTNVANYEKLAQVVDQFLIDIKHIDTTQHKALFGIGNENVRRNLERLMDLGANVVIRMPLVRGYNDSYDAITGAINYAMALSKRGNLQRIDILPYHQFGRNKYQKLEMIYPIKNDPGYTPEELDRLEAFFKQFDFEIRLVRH
Source text: as §1, §2, §3

[3] = system: CutC/D enzyme; experiment: Acute mouse model (plasma TMAO on choline diet); format: in vivo, male C57BL/6 mice; conditions: Table 4b; for % change from vehicle control + choline diet: 10 mg/kg oral gavage days 1-3; for Mean plasma TMAO: 10 mg/kg oral gavage days 1-3, plasma 20 h after last gavage
Description: The following acute mouse model may be used to determine inhibition of the CutC/D enzyme and thus the inhibition of the formation of trimethylamine (TMA) from choline.
On day 1, male C57BL/6 mice were given a chemically defined diet (Tekland Global Rodent Diet 2018) containing 1.0% choline (g/g) for the duration of the experiment. Concurrently on day 1, mice were orally gavaged with 200 μL of compounds of interest (formulated in water). Mice were orally gavaged with the compounds and vehicle control again on day 2 and day 3 at a fixed time. Twenty hours after the last gavage, mice were sacrificed, and plasma was collected and prepared for detection of trimethylamine-N-oxide (TMAO) via liquid chromatography with on-line tandem mass spectrometry (LC-MS/MS). Food consumption and mouse weight were measured each day.
Plasma samples were prepared for LCMS as follows: An aliquot of 20 μL plasma sample was protein precipitated with 200 μL internal standard solution (100 ng/mL Labetalol & 100 ng/mL Tolbutamide & 100 ng/mL Diclofenac in acetonitrile, the mixture was vortex-mixed and centrifuged at 4000 rpm for 15 min, 4° C. An aliquot of 100 μL supernatant was transferred to the sample plate for LCMS injection. 1 μL of sample was injected onto an LC column for TMAO LCMS analysis.
Concentrations of TMAO were determined with a calibration curve ranging 0.05-100 μM for d9-TMAO in control plasma.

[4] = Caco-2 permeability assay; format: in vitro ADME; conditions: human, pH 7.4, 1 μM, 2 hours, 37° C.
Description: Preparation of Caco-2 Cells: 50 μL and 25 mL of cell culture medium were added to each well of the Transwell insert and reservoir, respectively. The HTS transwell plates were incubated at 37° C., 5% CO2 for 1 hour before cell seeding. […] Cell culture medium was replaced every other day, beginning no later than 24 hours after initial plating.
Assessment of Cell Monolayer Integrity: Medium was removed from the reservoir and each Transwell insert and replaced with prewarmed fresh culture medium. Transepithelial electrical resistance (TEER) across the monolayer was measured using Millicell Epithelial Volt-Ohm measuring system (Millipore, USA). The Plate was returned to the incubator once the measurement was done. The TEER value was calculated according to the following equation: […]
Preparation of Solutions: 2 mM stock solutions in DMSO of control compounds were prepared and diluted with HBSS (10 mM HEPES, pH 7.4) to get 10 μM working solution. 0.2 mM stock solutions of test compounds in DMSO were prepared and diluted with HBSS (10 mM HEPES, pH 7.4 with 0.5% BSA) to get 1 μM working solution. Metoprolol, erythromycin and cimetidine were used as control compounds.
The Caco-2 plate was removed from the incubator. The monolayer was washed twice with pre-warmed HBSS (10 mM HEPES, pH 7.4). The plate was incubated at 37° C. for 30 minutes. To determine the rate of drug transport in the apical to basolateral direction, 125 μL of the working solution was added to the Transwell insert (apical compartment). A 50 μL sample was transferred immediately from the apical compartment to 200 μL of acetonitrile containing IS (100 nM alprazolam, 200 nM Caffeine and 100 nM tolbutamide) in a new 96-well plate as the initial donor sample (A-B) and it was vortexed at 1000 rpm for 10 minutes. The wells in the receiver plate (basolateral compartment) were filled with 235 μL of transport buffer. To determine the rate of drug transport in the basolateral to apical direction, 285 μL of the working solution were added to the receiver plate wells (basolateral compartment). A 50 μL sample was transferred immediately from the basolateral compartment to 200 μL of acetonitrile containing IS (100 nM alprazolam, 200 nM Caffeine and 100 nM tolbutamide) in a new 96-well plate as the initial donor sample (B-A) and it was vortexed at 1000 rpm for 10 minutes. The Transwell insert (apical compartment) was filled with 75 μL of transport buffer. The apical to basolateral direction and the basolateral to apical direction need to be done at the same time. The plates were incubated at 37° C. for 2 hours. At the end of the incubation, 50 μL samples from donor sides (apical compartment for Ap→Bl flux, and basolateral compartment for B1→Ap) and receiver sides (basolateral compartment for Ap→Bl flux, and apical compartment for B1→Ap) were transferred to wells of a new 96-well plate, followed by the addition of 4 volume of acetonitrile containing IS (100 nM alprazolam, 200 nM Caffeine and 100 nM tolbutamide). Samples were vortexed for 10 minutes, 50 μL samples were transferred to wells of a new 96-well plate, followed by the addition of 50 μL Hepes and 200 μL IS. All samples were vortexed for 10 minutes, and then centrifuged at 3,220 g for 40 minutes. An aliquot of 150 μL of the supernatant was mixed with an appropriate volume of ultra-pure water before LC-MS/MS analysis.
Apparent permeability (Papp) can be calculated for drug transport assays using the following equation: […]
Papp is apparent permeability (cm/s×10^−6);
Papp (B-A) indicates the apparent permeability coefficient in basolateral to apical direction, and
Papp (A-B) indicates the apparent permeability coefficient in apical to basolateral direction.

[5] = d9-TMA from 1 mM d9-choline, 5 h, 37° C.; value 10 given when no fit or % TMA remaining at 10 μM higher than 15%; read-out: Average IC50 Whole cell P. mirabilis

| SMILES | IC50 [1] [nM] | IC50 [2, 5] | further results |
| --- | --- | --- | --- |
| C[N+]1(C)CCCC1CO (stereo not drawn) [Compound 110, 2-(hydroxymethyl)-1,1-dimethylpyrrolidin-1-ium Iodide] | ≥ 10000 | ≥ 10000 nM | – |
| C[N+](C)(CCO)c1ccccc1 [Compound 145] | 1380 | ≥ 10000 nM | – |
| C#CC[N+](C)(C)CC(=C)C(=O)O.[Br-] [Compound B52, 2-carboxy-N,N-dimethyl-N-(prop-2-yn-1-yl)prop-2-en-1-aminium Bromide] | 10 | 40 nM and 30 nM | % change from vehicle control + choline diet [3]: 20.76%; Mean plasma TMAO [3]: 30.0 µM |
| C#CCC[N+](C)(C)C [Compound 130] | ≥ 10000 | 3470 nM | – |
| C[N+](C)(C)CCCP(=O)(O)O [Compound 143, N,N,N-trimethyl-3-phosphonopropan-1-aminium Trifluoroacetatetrifluoroacetatetrifluoroacetatetrifluoroacetatetrifluoroacetate] | ≥ 10000 | – | IC50 ([2]; read-out: Average IC50 Whole cell P. mirabilis; d9-TMA from 1 mM d9-choline, 5 h, 37° C.; value 10 given when no fit or % TMA remaining at 10 μM higher than 15%): ≥ 10000 nM |
| C#CC[N+]1(C)CC[C@H](O)C1 (stereo partly drawn) [Compound 112, (3S)-3-hydroxy-1-methyl-1-(prop-2-yn-1-yl)pyrrolidin-1-ium bromide] | 280 | 550 nM | – |
| C#CC[N@@+]1(C)CCC[C@@H]1CO [Compound 129, (1R,2R)-2-(hydroxymethyl)-1-methyl-1-(prop-2-yn-1-yl)pyrrolidin-1-ium Bromide] | ≥ 10000 | ≥ 10000 nM | – |
| C[N+](C)(C)CCNC=O [Compound 128] | ≥ 10000 | ≥ 10000 nM | – |
| C[N+]1(CF)CC[C@H](O)C1 (stereo partly drawn) [Compound 114, (3S)-1-(fluoromethyl)-3-hydroxy-1-methylpyrrolidin-1-ium Iodide] | 1630 | 2080 nM | – |
| C[N+]1(CF)CC[C@@H](O)C1 (stereo partly drawn) [Compound 115, (3R)-1-(fluoromethyl)-3-hydroxy-1-methylpyrrolidin-1-ium Iodide] | 9850 | 2070 nM | – |
| C#CC[N+](C)(C)CCCCC(=O)O [Compound A51, 4-carboxy-N,N-dimethyl-N-(prop-2-yn-1-yl)butan-1-aminium Bromide] | 930 | 1100 nM | – |
| C#CC1CC[N+](C)(C)C1 (stereo not drawn) [Compound 137, 3-ethynyl-1,1-dimethylpyrrolidin-1-ium Iodide] | ≥ 10000 | ≥ 10000 nM | – |
| C[N+]1(C)CC[C@@H](O)C1 [Compound 116, (R)-3-hydroxy-1,1-dimethylpyrrolidin-1-ium Iodide] | ≥ 10000 | ≥ 10000 nM | – |
| C[N+](C)(C)CC#CCO [Compound 132, 4-hydroxy-N,N,N-trimethylbut-2-yn-1-aminium Chloride] | ≥ 10000 | ≥ 10000 nM | – |
| C#CC(C)[N+](C)(C)C (stereo not drawn) [Compound 133] | 440 | 660 nM | – |
| C#CC[N+](C)(C)CCCO [Compound 138, N-(3-hydroxypropyl)-N,N-dimethylprop-2-yn-1-aminium Trifluoroacetate] | 5350 | 1050 nM | – |
| C#CCn1ccnc1 [Compound Z76, 1-(prop-2-yn-1-yl)-1H-imidazole] | ≥ 10000 | 4040 nM | – |
| C#CC[N+](C)(CF)CCO[C@@H]1O[C@H](COC(C)=O)[C@@H](OC(C)=O)[C@H](OC(C)=O)[C@H]1OC(C)=O (stereo partly drawn) [Compound 77, (fluoromethyl)(methyl)(prop-2-yn-1-yl)(2-{[(2R,3R,4S,5R,6R)-3,4,5-tris(acetyloxy)-6-[(acetyloxy)methyl]oxan-2-yl]oxy}ethyl)azanium] | – | ≥ 10000 nM | Papp A→B at 2 h, 1 µM ([4]; Caco-2, apical to basolateral, read-out: Papp A-B): 0.218 ×10⁻⁶ cm/s; Papp B→A at 2 h, 1 µM ([4]; Caco-2, basolateral to apical, read-out: Papp B-A): 0.337 ×10⁻⁶ cm/s |
| C[N+](C)(C)CCCC(=O)O [Compound 127, 3-carboxy-N,N,N-trimethylpropan-1-aminium Iodide] | ≥ 10000 | 5010 nM | – |
| C#CC[N+]1(C)CCC[C@H]1CO (stereo partly drawn) [Compound 108, (2S)-2-(hydroxymethyl)-1-methyl-1-(prop-2-yn-1-yl)pyrrolidin-1-ium bromide] | 2460 | 2190 nM | – |
| C[S+]([O-])C[N+](C)(C)C (stereo not drawn) [Compound 140, (methanesulfinylmethyl)trimethylazanium Chloride] | ≥ 10000 | ≥ 10000 nM | – |
| C[N+](C)(CF)CC(O)O [Compound 146] | 1500 | ≥ 10000 nM | – |
| C[N+]1(C)CCCC1COCc1ccccc1 (stereo not drawn) [Compound 134, 2-[(benzyloxy)methyl]-1,1-dimethylpyrrolidin-1-ium Iodide] | ≥ 10000 | ≥ 10000 nM | – |
| C#CC[N+]1(C)CC[C@@H](O)C1 (stereo partly drawn) [Compound 113, (3R)-3-hydroxy-1-methyl-1-(prop-2-yn-1-yl)pyrrolidin-1-ium bromide] | 1250 | 700 nM | – |
| C#CC[N+](C)(C)CCCC(=O)O [Compound 144, N-(3-carboxypropyl)-N,N-dimethylprop-2-yn-1-aminium Iodide] | 700 | 580 nM | – |
| C#CC[N+](C)(C)CCCCO.O=C([O-])C(F)(F)F [Compound 141, 4-hydroxy-N,N-dimethyl-N-(prop-2-yn-1-yl)butan-1-aminium Trifluoroacetate] | ≥ 10000 | 5250 nM | % change from vehicle control + choline diet [3]: −88.23%; Mean plasma TMAO [3]: 2.92 µM |
